These results are taken from patent publication US5149845A, “Extractants for the separation of transition and related metal ions” (Yeda Research and Development Co. Ltd., priority 1988, dated 1992).

Data set [1] can be described thus: octanol saline (1:1) partition. It is filed as physicochemical. Conditions: read-out: Partition Coefficients (converted). The text has this:
Partition coefficients relate to octanol saline (1:1) partition

Data set [2] in a line: removal of Zn^2+ from an equimolar mixture of Zn^2+ and Cd^2+ (ion chromatography). Conditions: 20 mM each Zn^2+ and Cd^2+; 3.0 mM carrier in chloroform.
The nature of data set [3]: selective extraction and transport from an equimolar mixture of six bivalent metal ions through a CHCl3 bulk membrane (U-tube, ion chromatography). The protocol:
Several of the ion binders, when incorporated into bulk membranes, selectively extract and transport a specific metal ion from a plurality of cations. An example is the quantitative separation of Cu^2+ from a mixture of six two-valent metal ions. This is illustrated by the quantitative removal of Cu^2+ from an equimolar mixture (10 mM each) of Pb^2+, Cu^2+, Cd^2+, Co^2+, Zn^2+ and Ni^2+ in water.

Data set [4] in a line: removal of Cu^2+ from an equimolar mixture of Cu^2+ and Fe^3+. Conditions: 3 mM each Cu^2+ and Fe^3+, 6 mM citric acid, pH 6.8 with KOH; 4.5 mM carrier in chloroform; receiver 3 mM DTPA at pH 2. The protocol:
A third example is the removal of Cu^2+ from an equimolar mixture of Cu^2+ and Fe^3+ (3 mM each in the presence of 6 mM citric acid titrated to pH 6.8 with KOH) with less than 10% contamination of Fe^3+, by using a carrier (n=2, m=0, q=0, R^1 =CH3) 4.5 mM concentration in chloroform and in the receiver phase 3 mM DTPA at pH2.

`CCOC(=O)CCN(O)C(=O)COCC(C)(C)COCC(=O)N(O)CCC(=O)OCC`: the logP in data set [1] was 0.5. Regarding `CC(C)CC(NC(=O)COCC(C)(C)COCC(=O)NC(CC(C)C)C(=O)N(C)O)C(=O)N(C)O` (stereo not drawn), in data set [1], the logP is 0.568. Regarding `CC(C)C[C@H](NC(=O)CCOCC(C)(C)COCCC(=O)N[C@@H](CC(C)C)C(=O)N(C)O)C(=O)N(C)O`, the logP in data set [1] is 1.2. In data set [2], the “contamination of Cd^2+ on removal of Zn^2+” value was “without any contamination of Cd^2+”. Further, the “removal of Cu^2+ from equimolar mixture” value in data set [3] (10 mM each of Pb^2+, Cu^2+, Cd^2+, Co^2+, Zn^2+, Ni^2+ in water, 0.3 mM carrier in CHCl3, receiver 0.1 M H2SO4) is listed as “quantitatively removed”. Further, in data set [3] (10 mM each of six metal ions, 0.3 mM carrier in CHCl3, receiver 0.1 M H2SO4, DIONEX ion chromatography), the “contamination by other metals” value is on record as “without a trace of contamination by other metals”. The “metal content of receiver arm after extraction” value in data set [3] (after 160 hours, equimolar mixture of six cations (FIG. 1B)) was “containing only Cu^2+”.

For `CN(O)C(=O)COCC(C)(C)COCC(=O)N(C)O` [q = 0, n=1, R^1=M, R^2=Me, R^3=Me], the logP in data set [1] is 0.352.

For `CCCC(C)(COCC(=O)N(C)O)COCC(=O)N(C)O` [q = 0, n=1, R^1=Me, R^2=Me, R^3=Pr], the logP in data set [1] was 0.29.

`CN(O)C(=O)CCOCC(C)(C)COCCC(=O)N(C)O` [q = 0, n=2, R^1=Me, R^2=Me, R^3=Me]: the logP in data set [1] is -0.0862. Also, in data set [4], the “contamination of Fe^3+ on removal of Cu^2+” value was “less than 10%”. On to `CC(NC(=O)COCC(C)(C)COCC(=O)NC(C)C(=O)N(C)O)C(=O)N(C)O` (stereo not drawn) [q = 1, n=1, R=Me, R^1=Me, R^2=Me, R^3=Me], for which, in data set [1], the logP was 0.29.
